{"source": "patent US20070043003A1", "about": "“Novel compounds for the prophylaxis and treatment of inflammatory bowel diseases” (Hikma Pharmaceuticals Co., Ltd., priority 2005, published 2007)", "key": {"[1]": {"system": "TNB (trinitrobenzenesulfonic acid)-induced ulcerative colitis", "experiment": "Rats with TNB-induced ulcerative colitis, macroscopic and microscopic examination of intestine, colon and cecum", "format": "in vivo, rat", "design": "key to Overall degree of inflammation / Mucosal inflammation and ulceration / Submucosal inflammation / Full thickness inflammation: − = No inflammation (normal); ± = Very minimal mucosal inflammation; + = Mild; +2 = Moderate; +3 = Severe", "conditions": "for Full thickness inflammation / Mucosal inflammation and ulceration / Overall degree of inflammation / Submucosal inflammation: one rat per row; for activity against intestinal bowel disease: compared to the known compound 5ASA", "description": "Rats with TNB (trinitrobenzenesulfonic acid)-induced ulcerative colitis were used as an animal model. 28 rats were randomly grouped (A, B, C1, C2, D1 and D2). Group A is used as positive control and each of the other three groups received a predetermined dose of compounds under testing (see Table 3). Animals were fasted for one night before taking the TNB solution. All animals received a solution (0.25 ml) of TNB in methylcelullose solution (50% methylcellulose in absolute ethanol) containing 20 mg of TNB. The TNB solution was administered by intracolonic administration using a syringe and rubber canula. The canula was inserted into the lumen of the colon via the anus. The cannula was advanced so that its tip was 8 cm from the anus. […] Group A took 0.5 ml of the suspension containing 2.5 mg of methylcellulose solution twice daily. • 2. […] The treatments were given for eight days, and on the 9th day the animals were sacrificed and opened along their abdomen for evaluation. The animals were subjected to the following testing • 1. Physical testing, as looking at the weight, […], general health, etc. • 2. Looking at the intestine before opening, colouration, thickness, etc. 3. Dissecting the intestine the colon and the cecum and examining them macroscopically and microscopically."}, "[2]": {"conditions": "upon oral administration; cited from earlier work"}, "[3]": {"conditions": "Group B: 5 mg 5ASA orally twice daily for eight days"}, "[4]": {"conditions": "Group D-1: 12 mg compound 5 orally twice daily for eight days"}, "[5]": {"conditions": "Group D-2: 18 mg compound 5 orally twice daily for eight days"}, "[6]": {"conditions": "Group C-1: 18 mg compound 9 orally twice daily for eight days"}, "[7]": {"conditions": "Group C-2: 28 mg compound 9 orally twice daily for eight days"}}, "note": "Where “and” joins values, the source holds several entries; their conditions need not be identical. Equal entries are not always repeated.", "data": [{"smiles": "Nc1ccc(O)c(C(=O)O)c1", "note": "[5ASA, 5-aminosalicylic acid, reference compound]", "values": [{"measurement": "Full thickness inflammation", "setting": "[1]; [3]", "result": "+"}, {"measurement": "Mucosal inflammation and ulceration", "setting": "[1]; [3]", "result": "+"}, {"measurement": "Overall degree of inflammation", "setting": "[1]; [3]", "result": "+2 (4×) and +3 and +1"}, {"measurement": "Submucosal inflammation", "setting": "[1]; [3]", "result": "+"}]}, {"smiles": "O=C(O)c1cc(N=Nc2ccc(S(=O)(=O)Nc3ccccn3)cc2)ccc1O", "note": "[SS, 2-Hydroxy-5-[4-(2-pyridylsulfamoyl)phenylazo]benzoic acid]", "values": [{"measurement": "fraction of a given dose absorbed from the small intestine", "setting": "[2]", "result": "about one-third"}]}, {"smiles": "Nc1ccc(-c2nc3cc(CC(=O)O)ccc3o2)cc1", "note": "[compound 5, 4-aminophenylbenzoxazole-5-acetic acid]", "values": [{"measurement": "Full thickness inflammation", "setting": "[1]; [4]", "result": "+ (3×) and − (2×)"}, {"measurement": "Mucosal inflammation and ulceration", "setting": "[1]; [4]", "result": "+ (4×) and −"}, {"measurement": "Overall degree of inflammation", "setting": "[1]; [4]", "result": "+1 (3×) and ± and −"}, {"measurement": "Submucosal inflammation", "setting": "[1]; [4]", "result": "+ (3×) and − (2×)"}, {"measurement": "Full thickness inflammation", "setting": "[1]; [5]", "result": "−"}, {"measurement": "Mucosal inflammation and ulceration", "setting": "[1]; [5]", "result": "+"}, {"measurement": "Overall degree of inflammation", "setting": "[1]; [5]", "result": "+1"}, {"measurement": "Submucosal inflammation", "setting": "[1]; [5]", "result": "+"}, {"measurement": "activity against intestinal bowel disease", "setting": "[1]", "result": "significantly higher activity"}]}, {"smiles": "O=C(O)Cc1ccc2oc(-c3ccc(N=Nc4ccc(O)c(C(=O)O)c4)cc3)nc2c1", "note": "[compound 9, 2-Hydroxy-5-[4-(benzoxazol-2-yl-5-acetic acid)phenylazo]benzoic acid]", "values": [{"measurement": "Full thickness inflammation", "setting": "[1]; [6]", "result": "−"}, {"measurement": "Mucosal inflammation and ulceration", "setting": "[1]; [6]", "result": "− and + (5×)"}, {"measurement": "Overall degree of inflammation", "setting": "[1]; [6]", "result": "− and ± (3×) and +1 (2×)"}, {"measurement": "Submucosal inflammation", "setting": "[1]; [6]", "result": "− (3×) and ± and + (2×)"}, {"measurement": "Full thickness inflammation", "setting": "[1]; [7]", "result": "−"}, {"measurement": "Mucosal inflammation and ulceration", "setting": "[1]; [7]", "result": "+"}, {"measurement": "Overall degree of inflammation", "setting": "[1]; [7]", "result": "± (2×) and +1"}, {"measurement": "Submucosal inflammation", "setting": "[1]; [7]", "result": "± (2×) and +"}, {"measurement": "activity against intestinal bowel disease", "setting": "[1]", "result": "significantly higher activity"}]}]}
